In article PMC6715681, “A high-throughput screen to identify novel synthetic lethal compounds for the treatment of E-cadherin-deficient cells” (Scientific Reports, 2019):

System: MCF10A WT and MCF10A CDH1^−/− cells
Assay: Single-point confirmation screen (10 μM, CTB, 384-well), viability differential between isogenic lines
Assay type: cell-based, human
Conditions: averaged between three biological replicates, Supplementary Table 2
Protocol: In the single-point confirmation screen, compounds that preferentially harm MCF10A CDH1^−/− cells compared to the wild-type cells were now identified. Three biological replicates were performed for each of the isogenic cell lines at a single-point (10 μM) in 384-well plates. All assay plates had acceptable Z’ values above 0.4 and 23 out of 48 plates had values above 0.6. The POC R^2 correlation between the three biological replicates for the two isogenic cell lines were all above 0.8 (data not shown). A cell viability differential of ‘MCF10A WT POC – MCF10A CDH1^−/− POC’ was used to select hits. An arbitrary threshold for the mean differential of >8.5% was chosen in order to maximize the number of hits being screened in the subsequent stages and to reduce false negatives.
To incorporate a measure of the variability between replicates of the screen into the hit selection process, a further requirement was included of a minimum of 2/3 biological replicates having viability differentials >8.5%. This removed a further 52 compounds shown in blue with only one out of three biological replicates crossing the Y = X-8.5 line independent of the mean. In total, 256 compounds were above the hit selection threshold, thereby preferentially killing E-cadherin negative cells. The mean POC differential of the 256 hits was 17.6% +/− 7.1 (+/−SD), with the highest being 48% for SLEC-1 (Synthetic Lethal E-Cadherin compound 1). […] The resulting 256 SL compounds were then assayed in an 11-point screen for EC50 determination.
MCF10A WT and MCF10A CDH1^−/− cells were seeded into Corning black walled, clear bottom 384-well plates (assay plates) using a multidrop 384 reagent dispenser (Thermo Fisher Scientific) and a total volume of 50 μL per well.
As we have shown MCF10A CDH1^−/− cells have a prolonged lag to log phase growth of around 24 hours, in order to achieve a similar confluence at 72 hours post seeding MCF10A WT and MCF10A CDH1^−/− cell lines were seeded at 600 cells/well and 800 cells/well, respectively. […] At 72 hours post seeding, plates were removed from the incubator and left for 30 minutes at RT to equalise the temperature across all wells of the plates and reduce fluorescence-based edge effects before reading on an EnVision (PerkinElmer) at 550 nm excitation and 590 nm emission to quantify cell viability.
The coRFU values were then used to calculate the normalized readouts of percent of controls (Eq. 3) and the robust Z score (Eqs 4,5), where doxorubicin refers to an EC80 dose and DMSO was 0.2% v/v.3 coPOC=100×(SamplecoRFU−x¯doxorubicincoRFU)/(x¯DMSOcoRFU−x¯doxorubicincoRFU) 4 MAD=median([…]) 5 CorrectedrobustZscore=(SamplecoRFU−platemediancoRFU)/MAD

COc1ccc2nc(C)cc(NCc3ccc(F)cc3)c2c1 [SLEC-11, N-(4-Fluorobenzyl)-6-methoxy-2-methylquinolin-4-amine]
Differential at 1-pt: 17.42
